{"source": "paper PMC4794209", "about": "“Preformulation Studies on Piperlongumine” (PLoS ONE, 2016)", "assay_type_in_all_cases": "physicochemical", "key": {"[1]": {"assay": "Solubility studies (excess drug, agitation at least 24 h, HPLC)", "procedure": "Solubility of piperlongumine was determined in purified water and the following cosolvent and surfactant systems: 5, 15, 30% (v/v) acetonitrile; 5, 15, 30, 50, 100% (v/v) of polyethylene glycol 400 (PEG 400), ethanol, glycerin and propylene glycol; 3, 7, 10% (w/v) of Tween 80; 2.5, 5, 10% (w/v) of Cremophor Rh 40; and a solution composition of 10% ethanol: 40% PEG 400 (w/v). Additionally, the complexing agents, sulfobutyl ether β-cyclodextrin sodium salt and hydroxyl-propyl-β-cyclodextrin, were examined at concentrations of 5, 10, 20, 40% (w/v).\nAn excess quantity of raw drug crystals were placed in a known volume of each medium in closed, light protected glass vials and allowed to agitate for at least 24 hours at ambient temperature. Samples were visually inspected to ensure that solid drug was still in excess and then filtered through a 0.2 μm PTFE filter. The filtrate was assayed via the previously described HPLC method and the concentration of piperlongumine in solution was determined."}, "[2]": {"assay": "n-octanol/water partitioning study", "settings": "room temperature, read-out: Partition coefficient (log P)", "procedure": "Piperlongumine crystals were placed in a small glass bottle containing equal volumes of n-octanol and water. The bottle was shaken for 24 hours, after which time, the bottle was allowed to equilibrate without mixing for an additional 24 hours to ensure full separation between the n-octanol and water layers. A sample from each layer was carefully withdrawn and analyzed by HPLC."}, "[3]": {"assay": "Photo-stability (UV sunlamps, 165 min)", "settings": "for Photo-degradation: UV exposure", "procedure": "Photo-stability was examined by preparing four groups of samples, each containing a triplicate sample and one reference (protected from light). These groups covered high and low drug concentrations in the following compositions:\n• 150 μg/ml of drug in 100% acetonitrile • 150 μg/ml of drug in 15:85 acetonitrile: water • 30 μg/ml of drug in 100% acetonitrile • 30 μg/ml of drug in 15:85 acetonitrile: water\nEach sample was prepared in a transparent glass vial and closed without any entrapped air. A reference sample was utilized for each group by covering one of the vials with aluminum foil to protect it from the light exposure. All vials were exposed for 165 min using Sun 340 sunlamps yielding UV emission between 295 and 390 nm to include UVA and UVB wavelengths. Samples were placed in an area where the UV intensity was measured to be 1.57 mw/cm^2. After the exposure time, samples were analyzed using the HPLC method described previously."}, "[4]": {"assay": "Additional stability studies with antioxidants, chelator, hydrogen peroxide", "procedure": "The addition of antioxidants such as ascorbic acid and sodium bisulfite and the chelator EDTA were evaluated with the drug at pH 3 (citrate buffer) and pH 7 (phosphate buffer). Samples in phosphate buffer were maintained at 26°C while the samples in citrate buffer were kept at 56°C. All three agents were used at a concentration of 0.05% w/v. Aliquots were withdrawn on a regular basis and pH and drug concentration were monitored. Piperlongumine stability was also examined after the addition of 1.5% w/v hydrogen peroxide in pH 3 citrate buffer at room temperature."}, "[5]": {"assay": "Solubility studies (excess drug, agitation at least 24 h, HPLC)", "remark": "listed apart in the source"}, "[6]": {"settings": "citrate, pH 3, 26°C, hydrogen peroxide 1.5% w/v"}, "[7]": {"settings": "citrate, pH 3, 56°C, EDTA 0.05% w/v"}, "[8]": {"settings": "citrate, pH 3, 56°C, ascorbic acid 0.05% w/v"}, "[9]": {"settings": "citrate, pH 3, 56°C, no additional substance"}, "[10]": {"settings": "citrate, pH 3, 56°C, sodium bisulfite 0.05% w/v"}, "[11]": {"settings": "phosphate, pH 7, 26°C, EDTA 0.05% w/v"}, "[12]": {"settings": "phosphate, pH 7, 26°C, ascorbic acid 0.05% w/v"}, "[13]": {"settings": "phosphate, pH 7, 26°C, no additional substance"}, "[14]": {"settings": "phosphate, pH 7, 26°C, sodium bisulfite 0.05% w/v"}}, "note": "Where two headings read alike, the source gives them in different places."}
{"compound": "COc1cc(/C=C/C(=O)N2CCC=CC2=O)cc(OC)c1OC", "note": "[piperlongumine, 1-[(2E)-3-(3,4,5-trimethoxyphenyl)prop-2-enoyl]-1,2,5,6-tetrahydropyridin-2-one]", "values": [{"measurement": "solubility", "setting": "[1]; 10% (w/v) Cremophor Rh 40, aqueous with cosolvent or surfactant or cyclodextrin, thermodynamic from solid, 10% (w/v) Cremophore Rh 40, read-out: Solubility", "result": "~550", "unit": "µg/mL"}, {"measurement": "solubility", "setting": "[1]; 10% (w/v) Tween 80, aqueous with cosolvent or surfactant or cyclodextrin, thermodynamic from solid, 10% Tween 80, read-out: Solubility", "result": "~700", "unit": "µg/mL"}, {"measurement": "solubility", "setting": "[1]; 10% ethanol: 40% PEG 400 (w/v), aqueous with cosolvent or surfactant or cyclodextrin, thermodynamic from solid, read-out: Solubility", "result": "~1700", "unit": "µg/mL"}, {"measurement": "solubility", "setting": "[1]; 10% ethanol: 40% PEG 400 (w/v), read-out: Solubility", "result": 1000, "unit": "µg/mL"}, {"measurement": "solubility", "setting": "[1]; 20% (w/v) hydroxypropyl-β-cyclodextrin, aqueous with cosolvent or surfactant or cyclodextrin, thermodynamic from solid, read-out: Solubility", "result": "~1000", "unit": "µg/mL"}, {"measurement": "solubility", "setting": "[1]; 20% (w/v) hydroxypropyl-β-cyclodextrin, read-out: Solubility", "result": 1000, "unit": "µg/mL"}, {"measurement": "solubility", "setting": "[1]; 20% (w/v) sulfobutyl ether β-cyclodextrin, aqueous with cosolvent or surfactant or cyclodextrin, thermodynamic from solid, read-out: Solubility", "result": "~1000", "unit": "µg/mL"}, {"measurement": "solubility", "setting": "[1]; 30% (v/v) acetonitrile, aqueous with cosolvent or surfactant or cyclodextrin, thermodynamic from solid, 30% acetonitrile, read-out: Solubility", "result": 1600, "unit": "µg/mL"}, {"measurement": "Fold improvement in solubility", "setting": "[1]; 30% acetonitrile vs water", "result": 63, "unit": "fold"}, {"measurement": "solubility", "setting": "[1]; 50% (v/v) PEG 400, aqueous with cosolvent or surfactant or cyclodextrin, thermodynamic from solid, 50% PEG 400, read-out: Solubility", "result": "~1100", "unit": "µg/mL"}, {"measurement": "solubility", "setting": "[1]; 50% (v/v) ethanol, aqueous with cosolvent or surfactant or cyclodextrin, thermodynamic from solid, 50% ethanol, read-out: Solubility", "result": "~2300", "unit": "µg/mL"}, {"measurement": "solubility", "setting": "[1]; 100% PEG 400, organic solvent or mixture, thermodynamic from solid, pure PEG 400, read-out: Solubility", "result": "~22000", "unit": "µg/mL"}, {"measurement": "solubility", "setting": "[1]; 100% ethanol, organic solvent or mixture, thermodynamic from solid, pure ethanol, read-out: Solubility", "result": "~11000", "unit": "µg/mL"}, {"measurement": "Concentrations afforded", "setting": "[1]; cosolvents and cyclodextrins", "result": "≥ 1000", "unit": "µg/mL"}, {"measurement": "solubility", "setting": "[1]; purified water, ambient temperature, read-out: Solubility in water (intrinsic solubility)", "result": "~26", "unit": "µg/mL"}, {"measurement": "solubility", "setting": "[1]; thermodynamic from solid, purified water, ambient temperature, read-out: Solubility in water (intrinsic solubility)", "result": "26 ± 2.9", "unit": "µg/mL"}, {"measurement": "logP at 24 h", "setting": "[2]", "result": "2.37 ± 0.12"}, {"measurement": "Average % of drug remaining ± SD", "setting": "[3]; 30 μg/ml, acetonitrile:water 15:85, UV 165 min", "result": "79.0 ± 0.1", "unit": "%"}, {"measurement": "Average % of drug remaining ± SD", "setting": "[3]; 30 μg/ml, acetonitrile:water 100:00, UV 165 min", "result": "39.5 ± 0.03", "unit": "%"}, {"measurement": "Average % of drug remaining ± SD", "setting": "[3]; 150 μg/ml, acetonitrile:water 15:85, UV 165 min", "result": "82.3 ± 0.6", "unit": "%"}, {"measurement": "Average % of drug remaining ± SD", "setting": "[3]; 150 μg/ml, acetonitrile:water 100:00, UV 165 min", "result": "44.5 ± 0.2", "unit": "%"}, {"measurement": "Photo-degradation", "setting": "[3]; 15:85 acetonitrile: water", "result": "approximately 20%"}, {"measurement": "Concentration remaining of the initial concentration", "setting": "[3]; light protected control samples, after exposure duration", "result": 100, "unit": "%"}, {"measurement": "Photo-degradation", "setting": "[3]; pure acetonitrile", "result": 60, "unit": "%"}, {"measurement": "Photo-degradation upon exposure to an ultraviolet light source", "setting": "[3]; qualitative", "result": "marked photo-degradation"}, {"measurement": "Effect on the stability profile", "setting": "[4]; addition of ascorbic acid and EDTA, pH 7 phosphate buffer, vs drug alone", "result": "did not have a significant effect"}, {"measurement": "Effect on degradation", "setting": "[4]; addition of ascorbic acid, pH 3", "result": "did not readily affect the degradation"}, {"measurement": "Effect on degradation", "setting": "[4]; addition of hydrogen peroxide (oxidizing agent)", "result": "does significantly increase degradation"}, {"measurement": "Effect on degradation rate", "setting": "[4]; addition of sodium bisulfite, pH 3 citrate buffer, 56°C, vs drug alone", "result": "did not affect the degradation rate"}, {"measurement": "Time of degradation", "setting": "[4]; addition of sodium bisulfite, pH 7", "result": "within a few minutes"}, {"measurement": "T90", "setting": "[4]; [6]", "result": 0.3, "unit": "weeks"}, {"measurement": "k values", "setting": "[4]; [6]", "result": 0.3369, "unit": "weeks^-1"}, {"measurement": "T90", "setting": "[4]; [7]", "result": 0.3, "unit": "weeks"}, {"measurement": "k values", "setting": "[4]; [7]", "result": 0.3266, "unit": "weeks^-1"}, {"measurement": "T90", "setting": "[4]; [8]", "result": 0.3, "unit": "weeks"}, {"measurement": "k values", "setting": "[4]; [8]", "result": 0.3706, "unit": "weeks^-1"}, {"measurement": "T90", "setting": "[4]; [9]", "result": 0.3, "unit": "weeks"}, {"measurement": "k values", "setting": "[4]; [9]", "result": 0.3107, "unit": "weeks^-1"}, {"measurement": "T90", "setting": "[4]; [10]", "result": 0.3, "unit": "weeks"}, {"measurement": "k values", "setting": "[4]; [10]", "result": 0.3860, "unit": "weeks^-1"}, {"measurement": "T90", "setting": "[4]; [11]", "result": 1.9, "unit": "weeks"}, {"measurement": "k values", "setting": "[4]; [11]", "result": 0.0559, "unit": "weeks^-1"}, {"measurement": "T90", "setting": "[4]; [12]", "result": 2.3, "unit": "weeks"}, {"measurement": "k values", "setting": "[4]; [12]", "result": 0.0459, "unit": "weeks^-1"}, {"measurement": "T90", "setting": "[4]; [13]", "result": 2.1, "unit": "weeks"}, {"measurement": "k values", "setting": "[4]; [13]", "result": 0.0494, "unit": "weeks^-1"}, {"measurement": "T90", "setting": "[4]; [14]", "result": 0.0, "unit": "weeks"}, {"measurement": "k values", "setting": "[4]; [14]", "result": 3069.8950, "unit": "weeks^-1"}, {"measurement": "Water solubility as a function of pH", "setting": "[5]", "result": "does not change as a function of pH"}]}
